Series [1] has as its target T1, glycine binding site of the NMDA receptor (Rattus norvegicus, UniProt P35439).
T1 construct: rat brain membrane homogenates that are enriched in NMDA receptors; tissue Pel-Freez, Rogers, Arkansas (frozen rat brains); host or cells: rat brain membrane homogenate
Put plainly: 1 μM glycine-stimulated [3H]-MK801 binding assay, brain membrane homogenates. The protocol: This assay takes advantage of the dependence of the binding of [^3 H]-MK801 to the PCP receptor inside the pore of the NMDA channel on the presence of both glutamate and glycine. In the absence of glycine, but in the presence of glutamate, [^3 H]-MK801 cannot bind effectively to the PCP receptor because the NMDA channel remains closed and access of [^3 H]-MK801 to the PCP receptor inside the closed channel pore is severely restted.
The assay is conducted using rat brain membrane homogenates that are enriched in NMDA receptors. The membranes are prepared as follows. Frozen rat brains (obtained from Pel-Freez, Rogers, Arkansas) are homogenized in 15 volumes (w/v) of ice cold 0.32 M sucrose. The homogenate is spun at 1,000×g for ten minutes. The supernatant is collected and spun for 20 minutes at 44,000×g. The pellet is suspended in 15 volumes of water (relative to original brain weight). The homogenate is again spun at 44,000×g for twenty minutes. The pellet is resuspended in 5 volumes of water and the suspension is freeze-thawed 2 times. After the final thaw cycle, the suspension is brought to 15 volumes with water and spun at 44,000×g for twenty minutes. The pellet is resuspended in 5 volumes of ice-cold 10 mM HEPES, and is titrated to pH 7.4 with KOH containing 0.04% Triton X-100. Membranes are incubated with the Triton/HEPES buffer at 37° C. for 15 minutes. The volume is then brought to 15 with ice-cold 10 mM HEPES, pH 7.4, and spun/washed three times with spins of 44,000×g between washes. The final pellet is suspended in three volumes of 50 mM HEPES, pH 7.4, and the protein concentration is determined with a standard dye-binding protein assay (Bio-Rad, Richmond, Calif.). The suspension is stored at -80° C. until used. Only HPLC grade water is used for all buffers and suspensions/washings. The extensive washings are necessary to remove as much endogenous glycine from the membrane preparation as possible.
Nonspecific binding is defined as the difference in binding that occurs in the absence or presence of-PCP (final concentration: 100 μM). To determine the effect of 1 μM glycine on the binding of [^3 H]-MK801, bound radioactivity in the presence of 10 μM glutamate alone (final concentration) is subtracted from the bound radioactivity in the presence of both 10 μM glutamate and 1 μM glycine (final concentration). A 500 nM concentration (final) of 5,7-dichlorokynurenic (DCK) acid is added to all assay tubes. This concentration of the glycine antagonist DCK "buffers" most of the residual endogenous glycine that is not removed by the extensive washing steps that are carried out during the membrane preparation procedure.
The assays are incubated for 120 minutes at room temperature after which time the membrane-bound radioactivity is isolated from the free radioactivity by vacuum filtration through Whatman glass fiber filters that had been pretreated with 0.3% polyethyleneimine. Filtration is accomplished using a Brandel,48 well cell harvester. Filtered membranes are washed three times with 3 mL each of ice cold buffer. Filters are transferred to scintillation vials and 5 mL of scintillation cocktail is added. The vials are shaken overnight and the radioactivity is counted by liquid scintillation spectroscopy. The assays are done in triplicate and all experiments are conducted at least three times.

Another series has as its system neurons. The conditions noted are these: literature; cited from earlier work.
For series [2], the system named is non-NMDA glutamate receptors. The conditions noted are these: literature; cited from earlier work.
Series [3] has as its system glycine binding site of the NMDA receptor. The conditions noted are these: literature, cited from earlier work.
For series [4] the following is noted: cited from earlier work.
Another series has as its target glycine binding site (Rattus norvegicus, UniProt P35439). As to the kind of experiment: affinity for the glycine binding site / glycine/NMDA receptor (Ki; method not stated). An excerpt:
(§1) The binding affinities of quinoxaline-2,3-diones at NMDA receptor glycine sites also were estimated by electrophysiological assays with either cloned rat NMDA receptors expressed in Xenopus oocytes, or non-NMDA receptors expressed in oocytes by whole rat brain poly(A)^+ RNA. […] For NMDA receptors Ki values were approximated by averaging values at three subtype combinations (NR1A/NR2A, NR1A/NR2B, and NR1A/NR2C).

A further series has as its system mice. As to the kind of experiment: anticonvulsant activity in maximum electroshock seizure (MES) experiments in mice. The series is classed as in vivo, male Swiss/Webster mice. On the procedure: The seizure stimulus parameters were: 50 mA, 60 Hz, rectangular pulse, width 0.8 msec, duration 200 msec. Tonic hind limb extension observed after application of the electrical stimulus was recorded as occurrence of seizure. The drug was applied i.v. as an aqueous Tris (Tromethamine) solution.

Series [5] can be described thus: penetration of the blood/brain barrier, access to the central nervous system. In kind it is in vivo. The conditions noted are these: inferred from Ki and MES ED50.
Series [6] has as its target NMDA receptor glycine sites. Put plainly: electrophysiological assay, cloned rat NMDA receptors expressed in Xenopus oocytes. The series is classed as cell-based. The conditions noted are these: Table II; from electrophysiology using Xenopus oocytes.
Excerpt: as §1

The mark [7] stands for this setting: Table II, footnote b, from binding assays, read-out: Ki.

Read-outs that look alike come from different tables or passages of the source.

The molecule `CCc1cc2nc(O)c(O)nc2c([N+](=O)[O-])c1Cl` [NO2 Cl Et H, 6-Chloro-7-ethyl-5-nitro-1,4-dihydroquinoxaline-2,3-dione] gave a Ki in series [1] of 40 nM.

`Cc1c(Cl)cc2nc(O)c(O)nc2c1N` [NH2 Me Cl H, 5-Amino-7-chloro-1,4-dihydro-6-methylquinoxaline-2,3-dione] had a Ki in series [1] of 500 nM.

With `NS(=O)(=O)c1cccc2c1c([N+](=O)[O-])cc1nc(O)c(O)nc12` [2,3-dihydroxy-6-nitro-7-sulfamoyl-benzo (F) quinoxaline], the “neuroprotective efficacy” value with neurons was “neuroprotective in cerebral ischemia models”. Further, in [2], the “antagonism at kainate / AMPA / non-NMDA receptors” value is “AMPA selective”.

For `CNC1(c2ccccc2Cl)CCCCC1=O` (stereo not drawn) [ketamine], the “neuroprotective efficacy” value in the series with neurons was “have neuroprotective efficacy both in vitro and in vivo”.

In the case of `O=C(O)C1CC2CC(CP(=O)(O)O)CCC2CN1` (stereo not drawn) [LY274614], the “neuroprotective efficacy” value in the series on neurons is recorded as “have neuroprotective efficacy”.

Molecule `COc1c(Cl)cc2[nH]c(=O)c(=O)[nH]c2c1[N+](=O)[O-]` [NO2 OMe Cl H, 7-Chloro-6-methoxy-5-nitro-1,4-dihydroquinoxaline-2,3-dione] gave a Ki in [1] of 450 nM.

For `NC1CCN(O)C1=O` (racemic) [HA-966], in [3], the “glycine site antagonism or affinity (words)” value was “partial agonist with only micromolar affinity for the glycine binding site”. The “penetration of the blood/brain barrier (words)” value in [4] (literature) is listed as “sufficiently penetrates the blood/brain barrier”.

For `O=[N+]([O-])c1c(OCCCc2ccccc2)c(F)cc2nc(O)c(O)nc12` [NO2 O(CH2)3 Ph F H, 7-Fluoro-6(3-phenylpropoxy)-5-nitro-1,4-dihydroquinoxaline-2,3-dione], the Ki in [1] came to 6700 nM.

Turning to `O=C(O)c1cc(O)c2c(Cl)cc(Cl)cc2n1` [5,7-dichlorokynurenic acid], the “glycine site antagonism or affinity (words)” value in [3] is on record as “relatively high receptor binding affinity in vitro”. Besides, the “penetration of the blood/brain barrier (words)” value in [4] (in vivo) is on record as “cannot penetrate the blood/brain barrier”.

Turning to `Cc1ccc2[nH]c(=O)c(=O)[nH]c2c1` [H Me H H, 6-Methyl-1,4-dihydro-2,3-quinoxalinedione], in [1] (setting [7]), the Ki came out at 9000 nM.

For the molecule `COc1ccc2c(c1)[C@]13CCCC[C@@H]1[C@H](C2)N(C)CC3` [dextromethorphan], in the series on neurons, the “neuroprotective efficacy” value is “have neuroprotective efficacy both in vitro and in vivo”.

One may read the ED50 as the dose at which the effect has come halfway, by size or by number of responders. `O=c1[nH]c2c(F)c(Cl)c(F)c([N+](=O)[O-])c2[nH]c1=O` [NO2 F Cl F, 7-Chloro-6,8-difluoro-5-nitro-1,4-dihydroquinoxaline-2,3-dione]: the “times less active than 6,7-dichloro-5-nitro-1,4-dihydroquinoxaline-2,3-dione at the glycine/NMDA receptor” value at glycine binding site (from Ki) is “about 50 times”. Also, the Ki at glycine binding site (read-out: Ki, affinity for the glycine/NMDA receptor) came to 170 nM. Further, the ED50 in the series on mice (Mus musculus, iv, Table III, i.v. injection, read-out: ED50 (MES)) fell in the range of 2 to 3 mg/kg. Also, the ED100 with mice (Mus musculus, Table IV, i.v.) was 5 mg/kg. The ED50 in the series with mice (Mus musculus, route not stated, read-out: ED50 as an anticonvulsant in the MES experiment in mice) was 2 to 3 mg/kg. Also, in the series on mice (Table IV, i.v.), the “ED50 (MES)” value was in the range of 2 to 3 mg/kg and the “IV peak of action” value fell in the range of 2 to 5 min. Moreover, in the series on mice (i.v., 5 mg/kg), the “% protection after 60 min.” value is on record as 50%. Moreover, the “times better in crossing the blood brain barrier than 6,7-dichloro-5-nitro-1,4-dihydroquinoxaline-2,3-dione” value in series [5] is on record as “about 100 times”.

As for `CCc1c(Cl)cc2nc(O)c(O)nc2c1[N+](=O)[O-]` [NO2 Et Cl H, 7-Chloro-6-ethyl-5-nitro-1,4-dihydroquinoxaline-2,3-dione], the Ki in series [1] was 200 nM.

Molecule `Cc1c(Br)cc2nc(O)c(O)nc2c1[N+](=O)[O-]` [NO2 Me Br H, 7-Bromo-6-methyl-5-nitro-1,4-dihydroquinoxaline-2,3-dione] registered a Ki in [1] of 40 nM.

For the molecule `O=c1[nH]c2cc(Cl)c(Cl)cc2[nH]c1=O` [6,7-dichloro-1,4-dihydroquinoxaline-2,3-dione], the “glycine site antagonism or affinity (words)” value was “competitive antagonist specific to the strychnine-insensitive [^3 H] glycine binding sites” in series [3] and “competitively displaced the strychnine-insensitive binding of [^3 H]glycine, without affecting the other binding sites on the NMDA receptor complex” in [3] (listed as drawing 6).

`CCc1cc2[nH]c(=O)c(=O)[nH]c2cc1CC` [H Et Et H, 6,7-Diethyl-1,4-dihydroquinoxaline-2,3-dione]: the Ki in series [1] was 800 nM.

With `O=C(O)[C@@H]1C[C@H](CP(=O)(O)O)CCN1` [CGS 19755], the “neuroprotective efficacy” value with neurons is “have neuroprotective efficacy”.

Consider `c1ccc(C2(N3CCCCC3)CCCCC2)cc1` [PCP, phencyclidine], for which the “neuroprotective efficacy” value in the series on neurons was “have neuroprotective efficacy both in vitro and in vivo”.

The molecule `Cc1c([N+](=O)[O-])c([N+](=O)[O-])c(Cl)c2[nH]c(=O)c(=O)[nH]c12` [Cl NO2 NO2 Me, 5-Chloro-6,7-dinitro-8-methyl-2,3-quinoxalinedione] came in with a Ki in series [1] of 3800 nM.

In the case of `O=C(O)c1cc2ccccc2[nH]1` [indole-2-carboxylic acid], the “glycine site antagonism or affinity (words)” value in series [3] is “relatively high receptor binding affinity in vitro”. Besides, the “penetration of the blood/brain barrier (words)” value in series [4] (literature) is “cannot penetrate the blood/brain barrier”.

In the case of `Cc1cc2[nH]c(=O)c(=O)n(CC(=O)O)c2cc1C` [Example 4a], the “glycine site antagonism or affinity (words)” value in series [3] is on record as “functional antagonism”.

Take `COc1c(F)cc2[nH]c(=O)c(=O)[nH]c2c1[N+](=O)[O-]` [NO2 OMe F H, 7-Fluoro-6-methoxy-5-nitro-1,4-dihydroquinoxaline-2,3-dione]: the Ki (at glycine binding site; in series [6]) was 320 nM throughout. Also, the “ED50 (MES)” value with mice (Table III, i.v. injection) stood at 7.5 mg/kg.

Take `CCCCOc1c(F)cc2nc(O)c(O)nc2c1[N+](=O)[O-]` [NO2 OBu-n F H, 7-Fluoro-6-(n-butoxy)-5-nitro-1,4-dihydroquinoxaline-2,3-dione]: the Ki in series [1] was 6500 nM.

For `CCc1cc2[nH]c(=O)c(=O)[nH]c2cc1Cl` [H Cl Et H, 6-Chloro-7-ethyl-1,4-dihydroquinoxaline-2,3-dione], in series [1], the Ki was 730 nM.

In the case of `[N-]=[N+]=Nc1ccc2[nH]c(=O)c(=O)[nH]c2c1` [H N3 H H, 6-azidol-1,4-dihydroquinoxaline-2,3-dione], the “binding to the glycine binding site” value at glycine binding site (Table I, compared with other 6-substituted derivatives) is “quite favorably binds”. In addition, the Ki at glycine binding site (Table I, read-out: Ki) came to 210 nM; in [1] (setting [7]) it was 910 nM.

The record behind these values is patent US6251903A, “Alkyl, azido, alkoxy, and fluoro-substituted and fused quinoxalinediones and the use thereof as glycine receptor antagonist” (priority 2000, dated 2001).
